Measurements taken from patent publication US20220226337A1 (Gilead Sciences, Inc., priority 2018, published 2022).
pEC50: −log10 of the molar value.

Target: T1, α4β7 integrin interaction with MadCAM-1 (RPMI8866 cells) (Homo sapiens, UniProt P13612+P26010)
T1 construct: α4β7 integrin expressing cells; endogenous in cells; host or cells: RPMI8866 cells
T1 sequence (P13612 34-1032): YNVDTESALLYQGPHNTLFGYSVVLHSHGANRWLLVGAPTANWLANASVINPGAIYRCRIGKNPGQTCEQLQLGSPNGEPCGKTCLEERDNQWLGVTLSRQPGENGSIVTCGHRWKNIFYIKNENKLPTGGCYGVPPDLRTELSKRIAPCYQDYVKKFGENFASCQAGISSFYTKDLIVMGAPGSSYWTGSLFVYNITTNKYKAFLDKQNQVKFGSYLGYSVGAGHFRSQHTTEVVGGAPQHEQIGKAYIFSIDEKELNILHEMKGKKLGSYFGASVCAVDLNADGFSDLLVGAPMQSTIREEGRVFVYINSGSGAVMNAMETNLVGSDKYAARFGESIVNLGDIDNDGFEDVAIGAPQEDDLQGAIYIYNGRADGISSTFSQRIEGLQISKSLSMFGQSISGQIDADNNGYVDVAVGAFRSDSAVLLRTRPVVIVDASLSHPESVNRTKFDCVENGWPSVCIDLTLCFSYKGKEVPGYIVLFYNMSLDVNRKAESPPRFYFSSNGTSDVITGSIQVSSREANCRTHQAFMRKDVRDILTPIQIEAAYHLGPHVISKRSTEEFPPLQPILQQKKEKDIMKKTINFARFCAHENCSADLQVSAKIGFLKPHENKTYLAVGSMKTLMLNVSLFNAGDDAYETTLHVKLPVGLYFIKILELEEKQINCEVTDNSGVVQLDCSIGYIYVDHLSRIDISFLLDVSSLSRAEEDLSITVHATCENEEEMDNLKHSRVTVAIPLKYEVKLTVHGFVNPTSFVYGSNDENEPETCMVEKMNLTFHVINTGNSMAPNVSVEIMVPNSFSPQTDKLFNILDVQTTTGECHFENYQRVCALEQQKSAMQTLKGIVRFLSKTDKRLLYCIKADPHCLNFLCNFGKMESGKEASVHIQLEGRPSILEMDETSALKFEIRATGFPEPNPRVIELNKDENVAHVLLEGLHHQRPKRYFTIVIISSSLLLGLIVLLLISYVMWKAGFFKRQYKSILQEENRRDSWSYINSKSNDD
T1 sequence (P26010 20-798): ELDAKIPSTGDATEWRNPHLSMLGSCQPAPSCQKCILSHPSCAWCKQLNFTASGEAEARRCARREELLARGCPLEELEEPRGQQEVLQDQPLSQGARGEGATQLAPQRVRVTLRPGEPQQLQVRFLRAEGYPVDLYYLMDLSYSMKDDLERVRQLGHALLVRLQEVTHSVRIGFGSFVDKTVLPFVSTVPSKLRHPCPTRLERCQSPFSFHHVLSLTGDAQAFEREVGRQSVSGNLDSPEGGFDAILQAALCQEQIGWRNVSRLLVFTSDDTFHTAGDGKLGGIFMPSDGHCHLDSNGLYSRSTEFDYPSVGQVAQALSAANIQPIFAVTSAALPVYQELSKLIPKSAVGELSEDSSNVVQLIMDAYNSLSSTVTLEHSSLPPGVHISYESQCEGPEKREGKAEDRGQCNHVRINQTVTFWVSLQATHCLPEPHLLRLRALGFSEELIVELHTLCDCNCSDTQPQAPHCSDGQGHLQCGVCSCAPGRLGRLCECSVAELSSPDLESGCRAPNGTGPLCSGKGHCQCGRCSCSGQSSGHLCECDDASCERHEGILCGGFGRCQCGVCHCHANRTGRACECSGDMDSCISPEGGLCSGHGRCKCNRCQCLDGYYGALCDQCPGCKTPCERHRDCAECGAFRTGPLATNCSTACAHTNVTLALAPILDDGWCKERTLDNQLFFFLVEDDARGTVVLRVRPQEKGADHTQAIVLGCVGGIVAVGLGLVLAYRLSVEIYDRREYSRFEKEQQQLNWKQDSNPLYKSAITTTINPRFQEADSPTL
Test: α4β7 Integrin Cell Capture Assay
Format: cell-based
Settings: capture of α4β7 integrin expressing RPMI8866 cells on recombinant MadCAM-1 extracellular domain-coated plate; 0.5 mM MnCl2
Method in brief: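 RPMI8866 cells (0.5×10^6 cells/mL in DMEM + 0.5% FBS + 0.5 mM MnCl2) preincubated with compound 1 h at 37 °C, then allowed to adhere 30 min at 37 °C to plates coated with MAdCAM-1 extracellular domain (1.0 μg/mL). Bound cells fixed with 2% glutaraldehyde, Hoechst-stained, imaged and counted; EC50 from cell count versus concentration.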

Structure (SMILES)	pEC50
Cc1cc(C(F)(F)F)c(-c2ccc(C[C@H](NC(=O)c3c(F)cc(N[C@H](C)C(F)(F)F)cc3F)C(=O)O)c3c2OCCC3)c(=O)n1C (single isomer, unassigned) [Example 41]	9.23
O=C(N[C@@H](Cc1ccc(-c2c(Cl)cc(F)cc2Cl)c2c1CCC2)C(=O)O)c1c(F)cccc1F [Example 104, (S)-3-(7-(2,6-dichloro-4-fluorophenyl)-2,3-dihydro-1H-inden-4-yl)-2-(2,6-difluorobenzamido)propanoic acid]	7.05
Cc1nc(C)n(C)c(=O)c1-c1ccc(C[C@H](NC(=O)c2c(F)cc(N3CCOC[C@@H]3C(F)(F)F)cc2F)C(=O)O)c2c1COC2 [Example 185]	9.55
C[C@@H](Nc1cc(F)c(C(=O)N[C@@H](Cc2ccc(-c3c(Cl)cc(F)cc3Cl)c3c2CCCO3)C(=O)O)c(F)c1)C(F)(F)F [Example 50, (S)-3-(8-(2,6-dichloro-4-fluorophenyl)chroman-5-yl)-2-(2,6-difluoro-4-(((R)-1,1,1-trifluoropropan-2-yl)amino)benzamido)propanoic acid]	7.36
Cc1cc(C(F)(F)F)c(-c2ccc(C[C@H](NC(=O)c3c(F)cc(N4CCOC[C@@H]4C(F)(F)F)cc3F)C(=O)O)c3c2COC3)c(=O)n1C [Example 19, (S)-2-(2,6-difluoro-4-((R)-3-(trifluoromethyl)morpholino)benzamido)-3-(7-(1,6-dimethyl-2-oxo-4-(trifluoromethyl)-1,2-dihydropyridin-3-yl)-1,3-dihydroisobenzofuran-4-yl)propanoic acid]	9.71
CC[C@@H](Nc1cc(F)c(C(=O)N[C@@H](Cc2ccc(-c3c(C)cc(C)n(C)c3=O)c3c2CCCO3)C(=O)O)c(F)c1)C(F)(F)F [Example 52, (S)-2-(2,6-difluoro-4-(((R)-1,1,1-trifluorobutan-2-yl)amino)benzamido)-3-(8-(1,4,6-trimethyl-2-oxo-1,2-dihydropyridin-3-yl)chroman-5-yl)propanoic acid]	8.79
O=C(N[C@@H](Cc1ccc(-c2ncc3ccccc3c2Br)c2c1CCCO2)C(=O)O)c1c(Cl)cccc1Cl [Example 63, (S)-3-(8-(4-bromoisoquinolin-3-yl)chroman-5-yl)-2-(2,6-dichlorobenzamido) propanoic acid]	8.10
CCc1nc(-c2ccc(C[C@H](NC(=O)c3c(F)cccc3F)C(=O)O)c3c2OCCO3)c(C(F)(F)F)c2ccccc12 [Example 3]	8.19
Cc1nc(-c2ccc(C[C@H](NC(=O)c3c(F)cc(N4C[C@H]5C[C@H]5[C@@H]4C(F)(F)F)cc3F)C(=O)O)c3c2OCCC3)c(=O)n(C)c1C [Example 138]	9.02
N#Cc1cc(Cl)c(-c2ccc(C[C@H](NC(=O)c3c(F)cc(N[C@H](c4ccccc4)C(F)(F)F)cc3F)C(=O)O)c3c2OCCC3)c(Cl)c1 [Example 87, (S)-3-(8-(2,6-dichloro-4-cyanophenyl)chroman-5-yl)-2-(2,6-difluoro-4-(((R)-2,2,2-trifluoro-1-phenylethyl)amino)benzamido)propanoic acid]	7.89

Next, values leading:

pEC50	Structure (SMILES)
10.05	Cc1cc(N2CCOC[C@@H]2C(F)(F)F)cc(F)c1C(=O)N[C@@H](Cc1ccc(-c2c(C)nc(C)n(C)c2=O)c2c1CCCO2)C(=O)O (atropisomer, axis not shown) [Example 119]
9.28	Cc1c(Cl)cc(-c2ccc(C[C@H](NC(=O)c3c(F)cc(N4CCOC[C@@H]4C(F)(F)F)cc3F)C(=O)O)c3c2OCCC3)c(=O)n1C [Example 141]
9.43	Cc1nc(-c2ccc(C[C@H](NC(=O)c3c(F)cc(N4CCOC[C@@H]4C(F)(F)F)cc3F)C(=O)O)c3c2C[C@H](O)C3)c(=O)n(C)c1C [Example 191]
9.01	Cn1cc(C(F)(F)F)nc(-c2ccc(C[C@H](NC(=O)c3c(F)cc(N4CCOC[C@@H]4C(F)(F)F)cc3F)C(=O)O)c3c2OCCC3)c1=O [Example 123]
8.33	Cc1nc(-c2ccc(C[C@H](NC(=O)c3c(F)cc(N4CCC(F)(F)C[C@H]4C(F)(F)F)cc3F)C(=O)O)c3c2OCCC3)c(=O)n(C)c1C [Example 143]
